Source: US20260365637A1, “DUAL EZH2-HSP90 INHIBITORS” (TAIPEI MEDICAL UNIVERSITY, priority 2023, published 2026)

Experiments:
Pt3R tumors = assay: Growth of TMZ-resistant Pt3R tumors in mice; assay type: in vivo, NOD.CB17-Prkdc^scid/NCrCrl mice; conditions: 5 mg/kg twice weekly
Description: NOD.CB17-Prkdc^scid/NCrCrl mice (8-week-old) were purchased from BioLASCO Taiwan Co., Ltd. (Taipei, Taiwan). Pt3R cells (1×10^6) in […] DMEM were injected onto the backs of mice. After 10 days, tumor was touchable. Mice were injected with DMSO (the control group) or MPT1A059 (5 mg/kg) twice per week.
In-vivo anti-GBM efficacy of compound 7 was also evaluated in this study. For the in-vivo study, experimental NOD.CB17-Prkdc^scid/NCrCrl mice (8-week-old) were used and Pt3R cells (1×10^6) in […] DMEM were injected into the backs of mice. After 10 days, the tumor was detectable. Mice were injected with DMSO (the control group) or compound 7 (5 mg/kg) twice weekly. […] In a nutshell, the outcome of the in-vivo study ascertains that the remarkable in vitro anti-GBM activity profile of dual inhibitor 7 was translated to the in-vivo potential.

Pt3R cells [1] = assay: Proliferation of Pt3R cells after treatment (FIG. 4A); assay type: cell-based, human; conditions: 2 μM, 48 h
Pt3R cells [2] = assay: Western blotting in Pt3R cells; assay type: cell-based, human
Description: The details of the procedure are described in our previous study. Primary antibodies, anti-CENPA, anti-CENPE, anti-CENPF and anti-CENPI antibodies, were purchased from abcam (Cambridge, UK); anti-CDK1 and anti-cyclin B1 antibodies were purchased from Santa Cruz Biotechnology, Inc. (Dallas, TX, USA); anti-EZH2 and anti-H3K27^me3 antibodies were purchased from GeneTex International Corporation (Hsinchu, Taiwan).
Furthermore, the impact of compound 7 treatment on centromere proteins (CENPs) was assessed. As such, CENPs are the main constituent proteins of the kinetochore, which are essential for cell division. CENP expression is elevated in GBM tissues and correlated with unfavourable overall survival in glioma patients.
(§1) Treatment concentration of MPT1A059 was indicated.

Pt3R cells [3] = assay: Cellular ROS assay (DHR, flow cytometry) in Pt3R cells; assay type: cell-based, human; conditions: 48 h, FIG. 7A
Description: (§2) Dihydrorhodamine 123 (DHR; Thermo Fisher Scientific, Waltham, MA, USA) was used to label cellular ROS detected by flow cytometry, and the MitoSOX reagent (Thermo Fisher Scientific) was used to label mitochondrial ROS [55].
as §1

EZH2 (Core Histone) = EZH2 (Core Histone) (Homo sapiens, UniProt Q15910); assay: EZH2 inhibition assay (Reaction Biology Corporation); assay type: biochemical
EZH2 (Core Histone), sequence (Q15910 whole entry): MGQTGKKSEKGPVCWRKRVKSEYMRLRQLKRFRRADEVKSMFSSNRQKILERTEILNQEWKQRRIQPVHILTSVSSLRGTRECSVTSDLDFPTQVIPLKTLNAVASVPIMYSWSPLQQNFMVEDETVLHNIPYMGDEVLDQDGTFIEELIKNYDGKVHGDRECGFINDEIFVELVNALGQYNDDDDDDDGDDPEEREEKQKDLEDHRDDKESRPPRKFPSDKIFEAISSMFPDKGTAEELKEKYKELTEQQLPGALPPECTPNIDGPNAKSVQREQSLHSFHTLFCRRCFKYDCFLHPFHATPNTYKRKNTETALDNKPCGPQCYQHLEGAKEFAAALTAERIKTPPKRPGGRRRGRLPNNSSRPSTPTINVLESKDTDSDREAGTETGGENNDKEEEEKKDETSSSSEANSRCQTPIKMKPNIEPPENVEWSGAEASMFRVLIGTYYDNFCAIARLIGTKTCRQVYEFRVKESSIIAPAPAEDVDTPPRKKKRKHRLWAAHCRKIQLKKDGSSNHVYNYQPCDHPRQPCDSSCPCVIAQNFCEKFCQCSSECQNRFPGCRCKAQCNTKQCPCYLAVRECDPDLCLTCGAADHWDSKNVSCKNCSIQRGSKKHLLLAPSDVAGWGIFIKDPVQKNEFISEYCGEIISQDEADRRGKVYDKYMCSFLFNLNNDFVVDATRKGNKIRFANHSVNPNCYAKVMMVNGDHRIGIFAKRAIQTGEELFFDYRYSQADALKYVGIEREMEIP
EZH2 (Core Histone), sequence (O75530 whole entry partner): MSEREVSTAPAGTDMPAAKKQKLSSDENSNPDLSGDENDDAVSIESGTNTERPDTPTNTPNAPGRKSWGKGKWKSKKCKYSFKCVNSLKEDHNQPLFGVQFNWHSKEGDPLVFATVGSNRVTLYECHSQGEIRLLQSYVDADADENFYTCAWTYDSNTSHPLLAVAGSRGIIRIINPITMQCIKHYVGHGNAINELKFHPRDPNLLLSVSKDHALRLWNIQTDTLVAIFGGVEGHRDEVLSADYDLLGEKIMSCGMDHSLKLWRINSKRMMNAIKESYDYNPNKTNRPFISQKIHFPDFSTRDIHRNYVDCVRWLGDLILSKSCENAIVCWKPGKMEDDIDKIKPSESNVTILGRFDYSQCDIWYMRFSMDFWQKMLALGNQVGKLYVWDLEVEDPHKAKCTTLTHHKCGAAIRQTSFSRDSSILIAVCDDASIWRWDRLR
EZH2 (Core Histone), sequence (Q15022 whole entry partner): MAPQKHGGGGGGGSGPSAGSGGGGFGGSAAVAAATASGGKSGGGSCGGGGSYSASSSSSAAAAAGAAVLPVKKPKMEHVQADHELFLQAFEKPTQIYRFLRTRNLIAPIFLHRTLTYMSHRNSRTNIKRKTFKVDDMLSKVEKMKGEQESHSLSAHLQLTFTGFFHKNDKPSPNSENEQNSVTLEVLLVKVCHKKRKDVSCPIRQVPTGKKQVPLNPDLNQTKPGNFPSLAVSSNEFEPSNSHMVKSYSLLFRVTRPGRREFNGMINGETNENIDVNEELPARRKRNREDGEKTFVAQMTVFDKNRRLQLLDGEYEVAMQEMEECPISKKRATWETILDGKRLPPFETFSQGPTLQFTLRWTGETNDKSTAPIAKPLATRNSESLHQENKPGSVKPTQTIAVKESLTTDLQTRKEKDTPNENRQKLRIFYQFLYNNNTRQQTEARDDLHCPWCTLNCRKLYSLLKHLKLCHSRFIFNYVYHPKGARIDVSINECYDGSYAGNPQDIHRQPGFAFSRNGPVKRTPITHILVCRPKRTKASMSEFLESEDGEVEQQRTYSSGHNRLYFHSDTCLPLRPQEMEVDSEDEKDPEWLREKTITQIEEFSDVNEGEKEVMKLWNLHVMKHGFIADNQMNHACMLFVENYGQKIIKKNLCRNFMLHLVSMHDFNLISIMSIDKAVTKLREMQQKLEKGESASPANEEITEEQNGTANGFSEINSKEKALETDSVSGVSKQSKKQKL
EZH2 (Core Histone), sequence (Q09028 whole entry partner): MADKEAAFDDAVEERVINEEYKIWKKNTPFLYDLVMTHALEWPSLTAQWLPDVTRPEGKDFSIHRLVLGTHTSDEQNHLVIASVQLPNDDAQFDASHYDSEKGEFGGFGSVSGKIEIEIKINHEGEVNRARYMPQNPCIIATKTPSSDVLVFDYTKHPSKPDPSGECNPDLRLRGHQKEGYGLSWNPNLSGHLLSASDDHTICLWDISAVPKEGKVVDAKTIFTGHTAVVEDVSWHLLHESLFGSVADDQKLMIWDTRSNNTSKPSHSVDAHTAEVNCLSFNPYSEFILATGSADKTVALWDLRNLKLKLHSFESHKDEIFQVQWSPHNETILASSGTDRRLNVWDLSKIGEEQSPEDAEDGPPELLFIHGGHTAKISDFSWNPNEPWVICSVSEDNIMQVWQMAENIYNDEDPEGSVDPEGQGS
EZH2 (Core Histone), sequence (Q6ZN18 whole entry partner): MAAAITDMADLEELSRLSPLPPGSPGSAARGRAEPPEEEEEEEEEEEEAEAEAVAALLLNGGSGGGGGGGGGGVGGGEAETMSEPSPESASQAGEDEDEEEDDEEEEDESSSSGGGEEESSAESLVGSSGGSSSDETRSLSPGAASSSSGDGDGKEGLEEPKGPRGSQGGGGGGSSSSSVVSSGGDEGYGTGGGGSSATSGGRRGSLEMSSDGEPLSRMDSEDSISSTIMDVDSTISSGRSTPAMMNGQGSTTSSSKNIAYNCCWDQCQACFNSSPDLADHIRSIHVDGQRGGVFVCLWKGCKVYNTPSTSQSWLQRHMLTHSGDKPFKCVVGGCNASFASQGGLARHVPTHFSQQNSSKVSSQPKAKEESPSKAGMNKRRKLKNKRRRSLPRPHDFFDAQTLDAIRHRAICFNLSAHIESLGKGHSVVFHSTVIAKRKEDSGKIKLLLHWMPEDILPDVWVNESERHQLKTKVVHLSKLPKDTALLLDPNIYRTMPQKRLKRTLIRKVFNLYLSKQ
Description: The EZH2 inhibitory ability of the synthesized adduct was assessed by Reaction Biology Corporation, Malvern, PA (http://www.reactionbiology.com).

Pt3 cells = assay: Cellular ROS assay (DHR, flow cytometry) in Pt3 cells; assay type: cell-based, human; conditions: 48 h, FIG. 7A
Description: as §2, §1

Question: What does the source list for `CCN(c1cc(-c2cccc(N(C)C(=O)c3cc(C(C)C)c(O)cc3O)c2)cc(C(=O)NCc2c(C)cc(C)[nH]c2=O)c1C)C1CCOCC1` [Compound 7, 3′-(2,4-dihydroxy-5-isopropyl-N-methylbenzamido)-N-((4,6-dimethyl-2-oxo-1,2-dihydropyridin-3-yl)methyl)-5-(ethyl(tetrahydro-2H-pyran-4-yl)amino)-4-methyl-[1,1′-biphenyl]-3-carboxamide]?
Answer: tumor size and weight compared to DMSO-treated mice (Pt3R tumors; FIG. 8A): significantly smaller sizes and weights; tumor growth (Pt3R tumors; FIG. 8B): tumor growth suppression ability; cell proliferation (Pt3R cells [1]): significantly inhibited cell proliferation; CDK1 and cyclin B1 expression (Pt3R cells [2]; FIG. 5D): downregulated; EZH2 expression and EZH2-modulated H3K27 trimethylation (Pt3R cells [2]; FIG. 7B): inhibited; catalase, superoxide dismutase (SOD) 1, glutathione reductase and glutathione peroxidase (GPX) 1 proteins (Pt3R cells [2]; FIG. 7B): decreased; CENPs protein expression (Pt3R cells [2]; Pt3R cells, FIG. 5D): decreased; ROS level (Pt3R cells [3]): increased; IC50 (EZH2 (Core Histone)): 6.29 nM; ROS level (Pt3 cells): increased
